Measured values as given in patent US20130029923A1, “Materials and Methods for Prevention and Treatment of Viral Infections” (priority 2009, published 2013).

Key:
[1] = system: prostaglandin E2 (PGE2); assay type: cell-based, human
[2] = system: influenza virus H1N1 (A/HK/54/98), oseltamivir-sensitive strain; assay type: cell-based, human influenza virus
[3] = system: influenza virus H3N2 (A/H3N2/1174/99); assay type: cell-based, human influenza virus
[4] = system: human influenza viruses H1N1 (A/HK/54/98), H9N2 (A/Quail/HK/G1/97), H3N2 (A/H3N2/1174/99); assay type: cell-based, human influenza virus
[5] = system: influenza M1 protein, H9N2/G1 (A/Quail/HK/G1/97); assay type: cell-based, human influenza virus
[6] = system: influenza virus H9N2 (A/Quail/HK/G1/97); assay type: cell-based, human influenza virus
[7] = system: influenza virus H9N2/G1 (A/Quail/HK/G1/97); assay type: cell-based, human influenza virus
[8] = system: MDCK cells
[9] = system: influenza virus H9N2/G1 (A/Quail/HK/G1/97); assay type: cell-based, human influenza virus; remark: listed apart in the source

Structure (SMILES): COC(=O)CC1(O)C=CC(=O)C=C1 [Compound D1, jacaranone]
- PGE2 levels in H9N2/G1-infected macrophages [1]: suppresses PGE2 levels in a dose-dependent manner
- PGE2 levels in non-infected macrophages [1]: does not cause any changes in PGE2 levels

Structure (SMILES): CCOC(=O)C1=C[C@@H](OC(CC)CC)[C@H](NC(C)=O)[C@@H](N)C1 [Tamiflu, oseltamivir, reference compound]
- suppression of virus (TCID50) compared with diluent (PBS)-treated cells [2]: more than 30 folds

Structure (SMILES): C[C@@H]1O[C@@H](OC[C@H]2O[C@@H](OCCc3ccc(O)c(O)c3)[C@H](O)[C@@H](O)[C@@H]2OC(=O)/C=C/c2ccc(O)c(O)c2)[C@H](O)[C@H](O)[C@H]1O [Compound A1, forsythoside A]
- suppression of virus replication (TCID50) compared with DMSO-treated cells [3]: ~12 fold
- suppression of virus replication (TCID50) compared with DMSO-treated cells [2]: about 15 fold
- anti-influenza virus effects in primary human blood macrophages [4]: possesses anti-influenza virus effects
- M1 protein expression level compared to DMSO [5]: lower
- relative intensity of M1 (normalized to actin) [5]: 0.39
- relative intensity of M1, DMSO-treated over treated cells [5]: more than four fold
- suppression of virus replication (TCID50) compared with DMSO-treated cells [6]: ~24 fold
- increase of cells expressing viral proteins from 6 h.p.i. to 10 h.p.i. [7]: about 15%
- percentages of cells expressing viral proteins vs DMSO at 6 h.p.i. [7]: no significant difference
- Cytotoxicity index [8]: 1.02
- cytotoxicity on MDCK cells ([8]; 100 ug/ml, 48 hours): does not exhibit significant cytotoxicity
- virion budding, ultrastructure [9]: slowed or abnormal budding process
